Assay results taken from PubChem BioAssay AID2060511 (Molecular Pharmacology Branch, DTP, NCI, 2025).

System: 422866-222-R5-J1-PDC spheroids with HUVEC/MSC, viability
Assay: Anticancer human tumor 422866-222-R5-J1-PDC patient-derived pancreatic adenocarcinoma cell line growth inhibition [GQUAD]
Conditions: for IC50: curve of first compound; for viability, T/C: stronger effect = lower value
Text: DNA G-quadruplex Stabilizer Agents in Combinations in Complex Spheroids
A high-throughput screen of multi-cell type tumor spheroids was designed to identify active combinations of DNA G-quadruplex stabilizer agents and targeted small molecules. Complex spheroids include a stromal component modeled by human endothelial cells (HUVEC) and fibroblasts modeled by human mesenchymal stem cells (MSCs). The concentration ranges selected for each drug and investigational agent were based upon clinically achievable concentrations if the clinical Cmax of the agent was known.
Compounds. The drugs and investigational agents: pidnarulex (CX-5461; NSC782164), APTO-253 (NSC789042), BRACO-19 (NSC847499), peposertib (NSC802822), ceralasertib (NSC780249), elimusertib (NSC800525), camonsertib (NSC841442), AZD-1390 (NSC803789), olaparib (NSC753686), talazoparib (NSC767125), ART-558 (NSC835418), sotorasib (NSC818433), MRTX-1133 (NSC836407), SN-38 (NSC673596), topotecan (NSC609699), etoposide (NSC141540), doxorubicin (NSC123127), gemcitabine (NSC613327), 5-fluorouracil (NSC19893), paclitaxel (NSC125973), vemurafenib (NSC761431), panobinostat (NSC761190), R-306465 (JNJ-16241199; NSC773264), adavosertib (NSC754352), TP-3654 (NSC805149), carboplatin (NSC241240), KSQ-4279 (NSC840948), and staurosporine (NSC755774) were obtained from the National Cancer Institute (NCI) Developmental Therapeutics Program Chemical Repository (34). The FDA-approved anticancer drug set is available from the NCI Developmental Therapeutics Program. […] The stock solutions were prepared in dimethyl sulfoxide (DMSO, Sigma-Aldrich, St. Louis, MO, cat. D2650) at 800-fold the tested concentration and stored at -70 degrees C prior to their use. All drugs and investigational agents were tested over a range starting from a high concentration at or near the clinical Cmax and decreasing in half-log increments. If the clinical Cmax for an agent had not been determined, the highest concentration tested was 10 microM.
2.3 Cell Culture. All cells were maintained in an incubator at 37 degrees C and 5% CO2 with 95% humidity. The PDC lines were cultured according to standard operating procedures established by the NCI PDMR. All PDCs were thawed and cultured in Matrigel-coated flasks prepared with a working solution of 1X Ham's F-12 nutrient mix, without supplementation (Invitrogen, cat. 11765054), 100 U/mL penicillin-streptomycin (Invitrogen, cat. 15140122), and 2.5% Matrigel (Corning Inc., cat. 354248) for the first three passages. The 857933-349-R-J2-PDC line was cultured in 6C/Colon 1B media, which includes advanced DMEM/F-12 (Thermo Fisher Scientific, cat. 12634028), 10 mM HEPES (Thermo Fisher Scientific, cat. 15630080), 1X GlutaMAX supplement (Thermo Fisher Scientific, cat. 35050061), 0.1 mg/mL primocin (InvivoGen, cat. ant-pm-2), 10% defined fetal bovine serum, heat inactivated (HyClone Laboratories Inc., cat. SH30070.03HI), 50% L-WRN conditioned media (ATCC, cat. CRL-3276), 1.25 mM N-Acetyl-L-cysteine (Sigma-Aldrich, cat. A9165), 10 mM nicotinamide (Sigma-Aldrich, cat. N0636), 1X B-27 supplement (Thermo Fisher Scientific, cat. 17504044), 1X N-2 supplement (Thermo Fisher Scientific, cat. 17502048), 10 microM Y-27632 dihydrochloride (Tocris Bioscience, cat. 1254), and 50 ng/mL human EGF recombinant protein (Thermo Fisher Scientific, cat. PHG0311). The 485176-168-R4-J1-PDC line was cultured in Panc media, which includes all 6C/Colon 1B media components plus 100 ng/mL human FGF-10 (Thermo Fisher Scientific, cat. 100-26), 500 nM SB-431542 (Selleckchem, cat. S1067), and gastrin (Tocris, cat. 3006).
[…]

[1] = second compound 0.0316 µM, first compound 0.0316 µM
[2] = second compound 0.0316 µM, first compound 0.316 µM
[3] = second compound 0.1 µM, first compound 0.0316 µM
[4] = second compound 0.1 µM, first compound 0.316 µM
[5] = second compound 0.316 µM, first compound 0.0316 µM
[6] = second compound 0.316 µM, first compound 0.316 µM
[7] = second compound 1 µM, first compound 0.0316 µM
[8] = second compound 1 µM, first compound 0.316 µM
[9] = second compound 3.16 µM, first compound 0.0316 µM
[10] = second compound 3.16 µM, first compound 0.316 µM
[11] = second compound 10 µM, first compound 0.0316 µM
[12] = second compound 10 µM, first compound 0.316 µM
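Note: spheroids exposed to compounds for seven days before reading.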
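Throughout, for viability, T/C: percent viability relative to DMSO vehicle control taken as 100%.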

CC(C)(O)C1CCC(Nc2ccc3ncc(-c4cccc(C(F)(F)F)c4)n3n2)CC1 (centres undefined) + CN(C)c1ccc(Nc2c3ccc(NC(=O)CCN4CCCC4)cc3nc3cc(NC(=O)CCN4CCCC4)ccc23)cc1 gave an IC50 (second compound 0.0316 µM) of 2.09 µM, an IC50 (second compound 0.1 µM) of 2.67 µM and an IC50 (second compound 0.316 µM) of 1.71 µM. The IC50 (second compound 1 µM) was 1.77 µM, the IC50 (second compound 3.16 µM) was 1.57 µM and the IC50 (second compound 10 µM) was greater than 10 µM. The viability, T/C [1] was 88%, the viability, T/C (second compound 0.0316 µM, first compound 0.1 µM) was 80.5% and the viability, T/C [2] was 92.9%. For the same compound, the viability, T/C (second compound 0.0316 µM, first compound 1 µM) was 71.8%, the viability, T/C (second compound 0.0316 µM, first compound 3.16 µM) was 38.4% and the viability, T/C (second compound 0.0316 µM, first compound 10 µM) was 33.1%. It also gave a viability, T/C [3] of 90.2%, a viability, T/C (second compound 0.1 µM, first compound 0.1 µM) of 87.4% and a viability, T/C [4] of 81.1%. It also gave a viability, T/C (second compound 0.1 µM, first compound 1 µM) of 68.5%, a viability, T/C (second compound 0.1 µM, first compound 3.16 µM) of 45.7% and a viability, T/C (second compound 0.1 µM, first compound 10 µM) of 39%. It also gave a viability, T/C [5] of 72.7%, a viability, T/C (second compound 0.316 µM, first compound 0.1 µM) of 82.4% and a viability, T/C [6] of 66.1%. For the same compound, the viability, T/C (second compound 0.316 µM, first compound 1 µM) was 58.5%, the viability, T/C (second compound 0.316 µM, first compound 3.16 µM) was 41.3% and the viability, T/C (second compound 0.316 µM, first compound 10 µM) was 36.9%. For the same compound, the viability, T/C [7] was 85.6%, the viability, T/C (second compound 1 µM, first compound 0.1 µM) was 80.2% and the viability, T/C [8] was 77.2%. The viability, T/C (second compound 1 µM, first compound 1 µM) was 57.6%, the viability, T/C (second compound 1 µM, first compound 3.16 µM) was 42.1% and the viability, T/C (second compound 1 µM, first compound 10 µM) was 35.4%. For the same compound, the viability, T/C [9] was 82.2%, the viability, T/C (second compound 3.16 µM, first compound 0.1 µM) was 77.2% and the viability, T/C [10] was 64.3%. For the same compound, the viability, T/C (second compound 3.16 µM, first compound 1 µM) was 63.5%, the viability, T/C (second compound 3.16 µM, first compound 3.16 µM) was 33% and the viability, T/C (second compound 3.16 µM, first compound 10 µM) was 40.6%. For the same compound, the viability, T/C [11] was 77.4%, the viability, T/C (second compound 10 µM, first compound 0.1 µM) was 69.6% and the viability, T/C [12] was 79.1%. The viability, T/C (second compound 10 µM, first compound 1 µM) was 75.4%, the viability, T/C (second compound 10 µM, first compound 3.16 µM) was 63.2% and the viability, T/C (second compound 10 µM, first compound 10 µM) was 55.5%.
With CCc1c2c(nc3ccc(O)cc13)-c1cc3c(c(=O)n1C2)COC(=O)[C@]3(O)CC + Cc1[nH]c2ccc(F)cc2c1-c1nc2c3cccnc3c3ncccc3c2[nH]1 the IC50 (second compound 0.0316 µM) was 0.0025 µM, the IC50 (second compound 0.1 µM) was 0.00217 µM and the IC50 (second compound 0.316 µM) was less than 0.000999 µM. It also gave an IC50 (second compound 1 µM) of 0.00199 µM, an IC50 (second compound 3.16 µM) of 0.00144 µM and an IC50 (second compound 10 µM) of less than 0.000999 µM. The viability, T/C (second compound 0.0316 µM, first compound 0.000999 µM) was 61.3%, the viability, T/C (second compound 0.0316 µM, first compound 0.00316 µM) was 43.6% and the viability, T/C (second compound 0.0316 µM, first compound 0.00999 µM) was 41.5%. It also gave a viability, T/C [1] of 41.4%, a viability, T/C (second compound 0.0316 µM, first compound 0.0999 µM) of 36.3% and a viability, T/C [2] of 30.3%. For the same compound, the viability, T/C (second compound 0.1 µM, first compound 0.000999 µM) was 60%, the viability, T/C (second compound 0.1 µM, first compound 0.00316 µM) was 44.6% and the viability, T/C (second compound 0.1 µM, first compound 0.00999 µM) was 38%. It also gave a viability, T/C [3] of 34.3%, a viability, T/C (second compound 0.1 µM, first compound 0.0999 µM) of 38.7% and a viability, T/C [4] of 28.1%. For the same compound, the viability, T/C (second compound 0.316 µM, first compound 0.000999 µM) was 52.8%, the viability, T/C (second compound 0.316 µM, first compound 0.00316 µM) was 40.8% and the viability, T/C (second compound 0.316 µM, first compound 0.00999 µM) was 39.5%. For the same compound, the viability, T/C [5] was 45%, the viability, T/C (second compound 0.316 µM, first compound 0.0999 µM) was 39.2% and the viability, T/C [6] was 25.9%. It also gave a viability, T/C (second compound 1 µM, first compound 0.000999 µM) of 55.8%, a viability, T/C (second compound 1 µM, first compound 0.00316 µM) of 45.6% and a viability, T/C (second compound 1 µM, first compound 0.00999 µM) of 39.9%. For the same compound, the viability, T/C [7] was 38%, the viability, T/C (second compound 1 µM, first compound 0.0999 µM) was 38.3% and the viability, T/C [8] was 31.2%. It also gave a viability, T/C (second compound 3.16 µM, first compound 0.000999 µM) of 54.3%, a viability, T/C (second compound 3.16 µM, first compound 0.00316 µM) of 40.9% and a viability, T/C (second compound 3.16 µM, first compound 0.00999 µM) of 36.4%. It also gave a viability, T/C [9] of 35.4%, a viability, T/C (second compound 3.16 µM, first compound 0.0999 µM) of 37.7% and a viability, T/C [10] of 31.6%. For the same compound, the viability, T/C (second compound 10 µM, first compound 0.000999 µM) was 48.8%, the viability, T/C (second compound 10 µM, first compound 0.00316 µM) was 41.5% and the viability, T/C (second compound 10 µM, first compound 0.00999 µM) was 44%. It also gave a viability, T/C [11] of 40.7%, a viability, T/C (second compound 10 µM, first compound 0.0999 µM) of 34.2% and a viability, T/C [12] of 27.7%.
